# Source: the supplement of paper PMC11208160
# Assay: recombinant UMI read abundance after kanamycin selection (control-corrected) (log10(CPM+1)); higher = more efficient recombination; extreme values may be limits of the assay; sequences stand for … in AGTGCAGAGAAAATCGGCCAGTTTTCTCTGCCTGCAGTCCGCATGCCGTGGGACCCCTTGGGTTCTAACCTGTTGCCTAGATTTATGCAGCGGACTGCCTTTCTCCCAAAGTGATAAACCGG…AGGTTGGTTTCACT; site = the 11-nt donor
# Experimental: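 Pooled E. coli donor-specificity screen for the IS621 bridge recombinase. Each library member carries a reprogrammed 11-nt donor and a full-length LE bridge RNA expressed in cis from the natural promoter, with a paired donor-binding loop (8-nt LDG + 4-nt RDG) and a target-binding loop fixed to T5. It is co-electroporated with a T5 target plasmid; recombinase is induced with 0.07 mM IPTG and recombinants are selected on kanamycin. UMIs are counted as CPM, averaged over two biological replicates and corrected by the unselected control. Molecule = full bridge RNA written as DNA, built from the T5 scaffold: LDG = donor specificity nt 1-8, RDG = reverse complement of nt 8-11.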
# 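Further: IS621 bridge recombinase in Escherichia coli cells against a fixed T5 target plasmid.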
row,Sequence,recombinant UMI read abundance (log10)
1,AAAAAGGCATGGACCGGTTTTCCCGGTAATCCGTATTTGCT (site AAAAAGGCTAG),1.88
2,AAAAAGGCATGGACCGGTTTTCCCGGTAATCCGTATTTGCT (site ACAAAGGCTAG),1.19
3,AAAAAGGCATGGACCGGTTTTCCCGGTAATCCGTATTTGCT (site AGAAAGGCTAG),0.722
4,AAAAAGGCATGGACCGGTTTTCCCGGTAATCCGTATTTGCT (site ATAAAGGCTAG),1.59
5,AAAACCACATGGACCGGTTTTCCCGGTAATCCGTATTTGCT (site AAAACCACTAG),1.82
6,AAAATATCATGGACCGGTTTTCCCGGTAATCCGTATTTGCA (site AAAATATCTTG),2.21
7,AAAATATCATGGACCGGTTTTCCCGGTAATCCGTATTTGCA (site ACAGTATCTTG),1.88
8,AAACGCACATGGACCGGTTTTCCCGGTAATCCGTATTTGGG (site AAACGCACTCC),0.0145
9,AAACGGGCATGGACCGGTTTTCCCGGTAATCCGTATTTGCG (site AAACGGGCTCG),0.661
10,AAACTGTCATGGACCGGTTTTCCCGGTAATCCGTATTTGCC (site AAACTGTCTGG),1.79
11,AAACTGTCATGGACCGGTTTTCCCGGTAATCCGTATTTGTT (site AAACTGTCTAA),1.97
12,AAACTTGCATGGACCGGTTTTCCCGGTAATCCGTATTTGGA (site AAACTTGCTTC),0.688
13,AAAGATCCATGGACCGGTTTTCCCGGTAATCCGTATTTGGC (site AAAGATCCTGC),0
14,AAAGCCCCATGGACCGGTTTTCCCGGTAATCCGTATTTGAA (site AAAGCCCCTTT),0.767
15,AAAGCCTCATGGACCGGTTTTCCCGGTAATCCGTATTTGAA (site AAAGCCTCTTT),2.63
16,AAAGCTCCATGGACCGGTTTTCCCGGTAATCCGTATTTGTA (site AAAGCTCCTTA),1.42

row,Sequence,recombinant UMI read abundance (log10)
1,AAAGGCACATGGACCGGTTTTCCCGGTAATCCGTATTTGAA (site AAAGGCACTTT),0.56
2,AAAGGGACATGGACCGGTTTTCCCGGTAATCCGTATTTGAG (site AAAGGGACTCT),1.76
3,AAAGGGCCATGGACCGGTTTTCCCGGTAATCCGTATTTGAG (site AAAGGGCCTCT),0.0224
4,AAAGTAGCATGGACCGGTTTTCCCGGTAATCCGTATTTGCT (site AAAGTAGCTAG),1.94
5,AAAGTCACATGGACCGGTTTTCCCGGTAATCCGTATTTGGG (site AAAGTCACTCC),0.0214
6,AAAGTCACATGGACCGGTTTTCCCGGTAATCCGTATTTGGG (site CAAGTCACTCC),0.458
7,AAAGTCACATGGACCGGTTTTCCCGGTAATCCGTATTTGGG (site GAAGTCACTCC),0.00503
8,AAAGTCACATGGACCGGTTTTCCCGGTAATCCGTATTTGGG (site TAAGTCACTCC),0.158
9,AAATACACATGGACCGGTTTTCCCGGTAATCCGTATTTGCT (site AAATACACTAG),2.41
10,AAATATGCATGGACCGGTTTTCCCGGTAATCCGTATTTGGA (site AAATATGCTTC),1.25
11,AAATATGCATGGACCGGTTTTCCCGGTAATCCGTATTTGGA (site AACTATGCTTC),1
12,AAATATGCATGGACCGGTTTTCCCGGTAATCCGTATTTGGA (site AAGTATGCTTC),1.23
13,AAATATGCATGGACCGGTTTTCCCGGTAATCCGTATTTGGA (site AATTATGCTTC),0.905
14,AAATCGACATGGACCGGTTTTCCCGGTAATCCGTATTTGGT (site AAATCGACTAC),0.133
15,AAATCGTCATGGACCGGTTTTCCCGGTAATCCGTATTTGTC (site AAATCGTCTGA),1.91
16,AAATGAGCATGGACCGGTTTTCCCGGTAATCCGTATTTGGG (site AAATGAGCTCC),0.252
